Drawing on US6914121B2, “PEG-LHRH analog conjugates” (Applied Research Systems Ars Holding N.V., priority 1998, dated 2005), this text covers bioavailability and solubility for one compound.

Structures are written as SMILES. In brackets after ≈: the same amount, converted by molar mass. Square brackets hold non-standard residues; d marks the D form. Peptide text beside a SMILES is read from it. * marks the point of attachment. Phe(4-Cl) = N[CH](Cc1ccc(Cl)cc1)C(=O)O; 2Nal = N[CH](Cc1ccc2ccccc2c1)C(=O)O; Lys(iPr) = CC(C)NCCCC[CH](N)C(=O)O; 3Pal = N[CH](Cc1cccnc1)C(=O)O; Nicotinoyl = O=C(c1cccnc1)*

For series [1] the following is noted: previous formulations, e.g. antide 1 mg/ml in 5% glucose; cited from earlier work.
A short description of series [2]: Solubility of antide in isotonic media. The class given is physicochemical.

For `CC(=O)NC(Cc1ccc2ccccc2c1)C(=O)NC(Cc1ccc(Cl)cc1)C(=O)NC(Cc1cccnc1)C(=O)NC(CO)C(=O)NC(CCCCNC(=O)c1cccnc1)C(=O)NC(CCCCNC(=O)c1cccnc1)C(=O)NC(CC(C)C)C(=O)NC(CCCCNC(C)C)C(=O)N1CCCC1C(=O)NC(C)C(N)=O` (stereo not drawn) [antide] (Ac-[2Nal][Phe(4-Cl)][3Pal]SK(Nicotinoyl)K(Nicotinoyl)L[Lys(iPr)]PA-NH2; configuration not given here), the bioavailability result in series [1] is given as “poor bioavailability”. Moreover, the solubility in series [2] (0.9% NaCl solution) worked out at 25 µg/mL (≈ 15.7 µM); in series [2] (phosphate buffered saline), 16 µg/mL (≈ 10.1 µM).
